Measured values from patent US20210238176A1, “PESTICIDALLY-ACTIVE BICYCLIC HETEROAROMATIC COMPOUNDS” (SYNGENTA CROP PROTECTION AG, priority 2018, published 2021).

How the values were obtained:
Format in all cases: in vivo
[1] = test system: neonicotinoid-resistant Myzus persicae; assay: Myzus persicae (neonicotinoid-resistant) mixed population, contact/feeding, pepper plants; details: 120 h, neonicotinoid-resistant strain on pepper plants, 5 days after treatment, read-out: control (mortality)
Experimental: Myzus persicae (Neonicotinoid-Resistant, Green Peach Aphid), Mixed Population, Contact/Feeding.
Pepper plants were infested with mixed aged neonicotinoid-resistant aphid population and were treated 1 day after infestation with diluted test solutions in a spray chamber. 5 days after treatment, samples were assessed for mortality.

[2] = test system: Myzus persicae (Green Peach Aphid); assay: Myzus persicae systemic activity, pea seedling roots in test solution; details: 144 h, test rate 24 ppm, systemic via pea seedling roots, 6 days
Experimental: Myzus persicae (Green Peach Aphid). Systemic Activity
Roots of pea seedlings infested with an aphid population of mixed ages were placed directly into aqueous test solutions prepared from 10,000 ppm DMSO stock solutions. The samples were assessed for mortality 6 days after placing seedlings into test solutions.

[3] = test system: Myzus persicae (Green Peach Aphid); assay: Myzus persicae (green peach aphid) feeding/contact activity, sunflower leaf discs; details: foliar, 144 h, application rate 200 ppm, aphid population of mixed ages, 6 days after infestation
Experimental: Myzus persicae (Green Peach Aphid): Feeding/Contact Activity
Sunflower leaf discs were placed onto agar in a 24-well microtiter plate and sprayed with aqueous test solutions prepared from 10,000 ppm DMSO stock solutions. After drying, the leaf discs were infested with an aphid population of mixed ages. The samples were assessed for mortality 6 days after infestation.

[4] = test system: Myzus persicae (Green Peach Aphid); assay: Myzus persicae intrinsic activity, sucrose solution under Parafilm; details: 120 h, test rate 12 ppm, 5 days after infestation
From the text: Myzus persicae (Green Peach Aphid). Intrinsic Activity
Test compounds prepared from 10,000 ppm DMSO stock solutions were applied by pipette into 24-well microtiter plates and mixed with sucrose solution. The plates were closed with a stretched Parafilm. A plastic stencil with 24 holes was placed onto the plate and infested pea seedlings were placed directly on the Parafilm. The infested plate was closed with a gel blotting paper and another plastic stencil and then turned upside down. The samples were assessed for mortality 5 days after infestation.

[5] = test system: Nilaparvata lugens (Brown Plant Hopper, metabolic neonicotinoid-resistant); assay: Nilaparvata lugens (metabolic neonicotinoid-resistant) larvicide, feeding/contact, rice plants; details: 168 h, N3 nymphs, neonicotinoid-resistant strain, 7 days after treatment, read-out: control (mortality and growth regulation)
Experimental: Nilaparvata lugens (Brown Plant Hopper—Metabolic Neonicotinoid-Resistant), Larvicide, Feeding/Contact
Rice plants were treated with the diluted test solutions in a spray chamber. After drying, the plants were infested with ˜20 N3 nymphs. 7 days after the treatment, samples were assessed for mortality and growth regulation.

[6] = test system: Bemisia tabaci (Cotton White Fly); assay: Bemisia tabaci (cotton white fly) feeding/contact activity, cotton leaf discs; details: foliar, 144 h, application rate 200 ppm, adult white flies, 6 days after incubation
Experimental: Bemisia tabaci (Cotton White Fly): Feeding/Contact Activity
Cotton leaf discs were placed on agar in 24-well microtiter plates and sprayed with aqueous test solutions prepared from 10,000 ppm DMSO stock solutions. After drying the leaf discs were infested with adult white flies. The samples were checked for mortality 6 days after incubation.

[7] = test system: neonicotinoid-resistant Myzus persicae; assay: Myzus persicae (neonicotinoid-resistant) mixed population, contact, pea seedlings; details: 120 h, neonicotinoid-resistant strain on pea seedlings, 5 days after treatment, read-out: control (mortality)
Experimental: Myzus persicae (Green Peach Aphid—Neonicotinoid-Resistant), Mixed Population, Contact
Pea seedlings infested with a mixed-aged neonicotinoid-resistant Myzus persicae population were treated with diluted test solutions in a spray chamber and checked for mortality 5 days after treatment.

[8] = test system: neonicotinoid-resistant Bemisia tabaci; assay: Bemisia tabaci (metabolic neonicotinoid-resistant) adult, cotton leaf discs; details: foliar, 96 h, 4 days after infestation, read-out: control (% adult mortality)
Experimental: Bemisia tabaci (Neonicotinoid-Resistant, Cotton Whitefly-Metabolic Neonicotinoid-Resistant), Adult.
5 cm cotton leaf discs were placed upside down in petri dishes poured out with 11 mL 0.8% water agar and applied in a turntable spraying chamber. After drying of the spray deposits, leaf discs were infested with 10 adult neonicotinoid-resistant Bemisia tabaci. Dishes were covered with a fabric filter and sealed with a perforated plastic lid. Evaluation was made 4 days after infestation on % adult mortality.

Cn1ccc(-n2c3cccn(Cc4ccc(Cl)nc4)c-3nc2=O)n1 [Compound A2, 4-[(6-chloro-3-pyridyl)methyl]-1-(1-methylpyrazol-3-yl)imidazo[4,5-b]pyridin-2-one]
≥ 80%: mortality at 200 ppm [1] | mortality at 24 ppm [2] | mortality at 200 ppm [3] | mortality at 12 ppm [4]

Cn1cc(-n2c3cccn(Cc4ccc(Cl)nc4)c-3nc2=O)cn1 [Compound A3, 4-[(6-chloro-3-pyridyl)methyl]-1-(1-methylpyrazol-4-yl)imidazo[4,5-b]pyridin-2-one]
≥ 80%: mortality at 200 ppm [5] | mortality at 200 ppm [1] | mortality at 24 ppm [2] | mortality at 200 ppm [3] | mortality at 12 ppm [4] | mortality at 200 ppm [6]

O=c1nc2n(Cc3ccc(Cl)nc3)cccc-2n1-c1cncc(F)c1 [Compound A26, 4-[(6-chloro-3-pyridyl)methyl]-1-(5-fluoro-3-pyridyl)imidazo[4,5-b]pyridin-2-one]
≥ 80%: mortality at 24 ppm [2] | mortality at 200 ppm [7] | mortality at 200 ppm [3] | mortality at 12 ppm [4]

Cc1ccc(-n2c3cccn(Cc4ccc(Cl)nc4)c-3nc2=O)cc1 [Compound A30, 4-[(6-chloro-3-pyridyl)methyl]-1-(p-tolyl)imidazo[4,5-b]pyridin-2-one]
≥ 80%: mortality at 200 ppm [7] | mortality at 200 ppm [3] | mortality at 12 ppm [4]

O=c1nc2n(Cc3ccc(Cl)nc3)cccc-2n1-c1cccc(F)c1 [Compound A31, 4-[(6-chloro-3-pyridyl)methyl]-1-(3-fluorophenyl)imidazo[4,5-b]pyridin-2-one]
≥ 80%: mortality at 200 ppm [5] | mortality at 24 ppm [2] | mortality at 12 ppm [4]

O=c1nc2n(Cc3ccc(Cl)nc3)cccc-2n1-c1cccnc1 [Compound A33, 4-[(6-chloro-3-pyridyl)methyl]-1-(3-pyridyl)imidazo[4,5-b]pyridin-2-one]
≥ 80%: mortality at 200 ppm [5] | mortality at 24 ppm [2] | mortality at 200 ppm [3] | mortality at 12 ppm [4]

O=c1nc2n(Cc3ccc(Cl)nc3)cccc-2n1-c1ccccc1 [Compound A34, 4-[(6-chloro-3-pyridyl)methyl]-1-phenyl-imidazo[4,5-b]pyridin-2-one]
≥ 80%: mortality at 200 ppm [5] | mortality at 24 ppm [2] | mortality at 200 ppm [3] | mortality at 12 ppm [4]

CCn1cc(-n2c3cccn(Cc4ccc(Cl)nc4)c-3nc2=O)cn1 [Compound A63, 4-[(6-chloro-3-pyridyl)methyl]-1-(1-ethylpyrazol-4-yl)imidazo[4,5-b]pyridin-2-one]
≥ 80%: mortality at 200 ppm [1] | mortality at 200 ppm [8] | mortality at 200 ppm [3] | mortality at 12 ppm [4] | mortality at 200 ppm [6]

O=c1nc2n(Cc3ccc(Cl)nc3)cccc-2n1-c1cnn(C(F)(F)F)c1 [Compound A80, 4-[(6-chloro-3-pyridyl)methyl]-1-[1-(trifluoromethyl)pyrazol-4-yl]imidazo[4,5-b]pyridin-2-one]
≥ 80%: mortality at 200 ppm [1] | mortality at 200 ppm [3] | mortality at 12 ppm [4] | mortality at 200 ppm [6]

CCCn1cc(-n2c3cccn(Cc4ccc(Cl)nc4)c-3nc2=O)cn1 [Compound A83, 4-[(6-chloro-3-pyridyl)methyl]-1-(1-propylpyrazol-4-yl)imidazo[4,5-b]pyridin-2-one]
≥ 80%: mortality at 24 ppm [2] | mortality at 200 ppm [3] | mortality at 12 ppm [4] | mortality at 200 ppm [6]

O=c1nc2n(Cc3ccc(Cl)nc3)cccc-2n1-c1cnn(CC(F)(F)F)c1 [Compound A85, 4-[(6-chloro-3-pyridyl)methyl]-1-[1-(2,2,2-trifluoroethyl)pyrazol-4-yl]imidazo[4,5-b]pyridin-2-one]
≥ 80%: mortality at 24 ppm [2] | mortality at 200 ppm [3] | mortality at 12 ppm [4] | mortality at 200 ppm [6]

Cn1nc(C(F)(F)F)cc1-n1c2cccn(Cc3ccc(Cl)nc3)c-2nc1=O [Compound A88, 4-[(6-chloro-3-pyridyl)methyl]-1-[2-methyl-5-(trifluoromethyl)pyrazol-3-yl]imidazo[4,5-b]pyridin-2-one]
≥ 80%: mortality at 24 ppm [2] | mortality at 200 ppm [3] | mortality at 12 ppm [4] | mortality at 200 ppm [6]

Cc1c(-n2c3cccn(Cc4ccc(Cl)nc4)c-3nc2=O)cnn1C [Compound A92, 4-[(6-chloro-3-pyridyl)methyl]-1-(1,5-dimethylpyrazol-4-yl)imidazo[4,5-b]pyridin-2-one]
≥ 80%: mortality at 200 ppm [5] | mortality at 200 ppm [1] | mortality at 24 ppm [2] | mortality at 200 ppm [3] | mortality at 12 ppm [4] | mortality at 200 ppm [6]

O=c1nc2n(Cc3ccc(Cl)nc3)cccc-2n1-c1cnn(C2CC2)c1 [Compound A93, 4-[(6-chloro-3-pyridyl)methyl]-1-(1-cyclopropylpyrazol-4-yl)imidazo[4,5-b]pyridin-2-one]
≥ 80%: mortality at 200 ppm [5] | mortality at 200 ppm [1] | mortality at 24 ppm [2] | mortality at 200 ppm [3] | mortality at 12 ppm [4] | mortality at 200 ppm [6]

CC(C)n1nccc1-n1c2cccn(Cc3ccc(Cl)nc3)c-2nc1=O [Compound A94, 4-[(6-chloro-3-pyridyl)methyl]-1-(2-isopropylpyrazol-3-yl)imidazo[4,5-b]pyridin-2-one]
≥ 80%: mortality at 24 ppm [2] | mortality at 200 ppm [3] | mortality at 12 ppm [4] | mortality at 200 ppm [6]

Cn1cc(-n2c3cccn(Cc4ccc(Cl)nc4)c-3nc2=O)c(C(F)(F)F)n1 [Compound A96, 4-[(6-chloro-3-pyridyl)methyl]-1-[1-methyl-3-(trifluoromethyl)pyrazol-4-yl]imidazo[4,5-b]pyridin-2-one]
≥ 80%: mortality at 24 ppm [2] | mortality at 200 ppm [3] | mortality at 12 ppm [4] | mortality at 200 ppm [6]

CCc1nn(C)cc1-n1c2cccn(Cc3ccc(Cl)nc3)c-2nc1=O [Compound A100, 4-[(6-chloro-3-pyridyl)methyl]-1-(3-ethyl-1-methyl-pyrazol-4-yl)imidazo[4,5-b]pyridin-2-one]
≥ 80%: mortality at 24 ppm [2] | mortality at 200 ppm [3] | mortality at 12 ppm [4] | mortality at 200 ppm [6]

Cc1nn(C(C)C)cc1-n1c2cccn(Cc3ccc(Cl)nc3)c-2nc1=O [Compound A102, 4-[(6-chloro-3-pyridyl)methyl]-1-(1-isopropyl-3-methyl-pyrazol-4-yl)imidazo[4,5-b]pyridin-2-one]
≥ 80%: mortality at 24 ppm [2] | mortality at 200 ppm [3] | mortality at 12 ppm [4] | mortality at 200 ppm [6]
